ChEMBL document CHEMBL5291721, “A preclinical secondary pharmacology resource illuminates target-adverse drug reaction associations of marketed drugs” (Nat Commun, 2023)
*1 amine or outer side, *2 acyl side, *3 side chain or, on linkers, in order; H or OH if unused. Where a SMILES comes first, the peptide text is derived from it. Bridges are numbered along the chain shown (N, C = ends). [ ]: non-standard residue; d: D form. The star is where a group is joined. hTyr(3S-OH,4S-OH,3'-OSO3H) = N[C@H](C(=O)O)[C@H](O)[C@@H](O)c1ccc(O)c(OS(=O)(=O)O)c1; Orn(4R-OH,5R-OH) = O=C([C@H](C[C@@H](O)[C@@H](O)N[*:3])N[*:1])[*:2]; Pro(3S-OH,4S-Me) = C[C@H]1CN[C@H](C(=O)O)[C@H]1O; X1 = CCCCCOc1ccc(-c2cc(-c3ccc(C(=O)*)cc3)no2)cc1; Gln(3R-OH) = NC(=O)C[C@@H](O)[C@H](N)C(=O)O; Hyp = O=C(O)[C@@H]1C[C@@H](O)CN1

Assays:
[1] = molecular target: T1, Equilibrative nucleoside transporter 1 (Homo sapiens, UniProt Q99808)
T1 sequence (Q99808 whole entry): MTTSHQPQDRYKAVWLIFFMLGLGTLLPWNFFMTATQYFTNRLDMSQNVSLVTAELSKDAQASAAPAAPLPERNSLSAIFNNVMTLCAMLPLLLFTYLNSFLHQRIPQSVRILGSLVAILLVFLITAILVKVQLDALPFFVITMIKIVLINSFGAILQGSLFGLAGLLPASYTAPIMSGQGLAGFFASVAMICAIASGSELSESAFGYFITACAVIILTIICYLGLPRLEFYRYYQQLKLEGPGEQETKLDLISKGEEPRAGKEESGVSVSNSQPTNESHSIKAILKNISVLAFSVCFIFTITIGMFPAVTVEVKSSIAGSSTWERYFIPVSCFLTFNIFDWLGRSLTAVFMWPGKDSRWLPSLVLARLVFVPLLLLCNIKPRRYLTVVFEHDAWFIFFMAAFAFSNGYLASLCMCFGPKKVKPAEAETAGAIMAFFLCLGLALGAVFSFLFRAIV

[2] = molecular target: Growth hormone secretagogue receptor type 1 (Homo sapiens, UniProt Q92847)
Chain of Growth hormone secretagogue receptor type 1 (Q92847 whole entry): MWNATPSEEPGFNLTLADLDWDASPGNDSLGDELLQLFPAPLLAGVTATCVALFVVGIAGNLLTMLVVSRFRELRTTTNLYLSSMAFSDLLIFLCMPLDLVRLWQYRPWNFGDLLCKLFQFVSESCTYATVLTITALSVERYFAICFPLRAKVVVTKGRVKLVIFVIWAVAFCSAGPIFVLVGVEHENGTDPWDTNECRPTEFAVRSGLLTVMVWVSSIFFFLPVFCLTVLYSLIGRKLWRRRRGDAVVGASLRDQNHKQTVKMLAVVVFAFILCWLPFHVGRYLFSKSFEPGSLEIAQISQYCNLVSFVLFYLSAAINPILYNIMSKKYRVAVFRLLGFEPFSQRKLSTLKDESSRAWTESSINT

[3] = molecular target: T2, Cholecystokinin receptor type A (Homo sapiens, UniProt P32238)
T2 sequence (P32238 whole entry): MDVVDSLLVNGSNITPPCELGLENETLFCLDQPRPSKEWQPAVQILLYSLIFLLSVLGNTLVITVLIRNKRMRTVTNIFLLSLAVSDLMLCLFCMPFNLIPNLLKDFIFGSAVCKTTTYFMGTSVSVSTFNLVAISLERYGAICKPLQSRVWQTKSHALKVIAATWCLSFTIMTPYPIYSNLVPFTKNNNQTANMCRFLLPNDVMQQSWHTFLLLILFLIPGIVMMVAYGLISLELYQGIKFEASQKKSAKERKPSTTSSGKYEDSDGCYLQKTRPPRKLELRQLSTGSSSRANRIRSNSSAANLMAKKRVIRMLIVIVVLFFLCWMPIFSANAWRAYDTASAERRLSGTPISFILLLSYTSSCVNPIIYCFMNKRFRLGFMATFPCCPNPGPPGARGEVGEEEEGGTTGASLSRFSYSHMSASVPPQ

Endothelin-1 receptor = molecular target: T3, Endothelin-1 receptor (Homo sapiens, UniProt P25101)
T3 sequence (P25101 whole entry): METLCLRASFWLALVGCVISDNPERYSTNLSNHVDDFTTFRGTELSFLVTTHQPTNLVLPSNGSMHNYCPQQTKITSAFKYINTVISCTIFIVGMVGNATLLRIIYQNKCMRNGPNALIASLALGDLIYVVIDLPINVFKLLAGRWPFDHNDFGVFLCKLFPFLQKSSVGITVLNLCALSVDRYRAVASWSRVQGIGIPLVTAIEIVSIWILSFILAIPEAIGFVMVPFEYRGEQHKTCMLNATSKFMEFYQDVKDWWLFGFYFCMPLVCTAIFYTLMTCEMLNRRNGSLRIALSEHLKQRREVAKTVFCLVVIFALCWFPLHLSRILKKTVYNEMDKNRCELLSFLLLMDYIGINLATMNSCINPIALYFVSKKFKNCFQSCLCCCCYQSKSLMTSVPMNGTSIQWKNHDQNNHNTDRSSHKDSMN

[4] = molecular target: T4, Type-1 angiotensin II receptor (Homo sapiens, UniProt P30556)
T4 sequence (P30556 whole entry): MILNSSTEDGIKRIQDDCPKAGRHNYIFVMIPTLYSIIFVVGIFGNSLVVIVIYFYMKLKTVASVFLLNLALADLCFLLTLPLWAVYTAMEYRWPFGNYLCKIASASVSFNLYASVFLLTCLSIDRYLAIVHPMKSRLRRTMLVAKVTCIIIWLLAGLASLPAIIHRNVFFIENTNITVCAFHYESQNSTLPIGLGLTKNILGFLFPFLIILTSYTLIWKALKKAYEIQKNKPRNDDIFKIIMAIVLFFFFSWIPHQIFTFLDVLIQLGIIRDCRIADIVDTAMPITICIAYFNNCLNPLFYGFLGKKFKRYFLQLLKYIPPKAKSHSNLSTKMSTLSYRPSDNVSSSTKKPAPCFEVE

Adenosine receptor A1 = molecular target: T5, Adenosine receptor A1 (Homo sapiens, UniProt P30542)
T5 sequence (P30542 whole entry): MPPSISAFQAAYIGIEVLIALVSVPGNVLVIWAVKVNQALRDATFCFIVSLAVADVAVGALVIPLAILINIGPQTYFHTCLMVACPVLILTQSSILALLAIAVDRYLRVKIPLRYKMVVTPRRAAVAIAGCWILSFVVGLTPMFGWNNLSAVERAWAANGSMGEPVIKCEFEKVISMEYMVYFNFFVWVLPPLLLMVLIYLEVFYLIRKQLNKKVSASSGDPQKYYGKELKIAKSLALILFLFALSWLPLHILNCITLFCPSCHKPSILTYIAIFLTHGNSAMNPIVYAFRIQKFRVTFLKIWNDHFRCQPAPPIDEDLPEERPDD

Mu-type opioid receptor = Mu-type opioid receptor (Homo sapiens, UniProt P35372)
Chain of Mu-type opioid receptor (P35372 whole entry): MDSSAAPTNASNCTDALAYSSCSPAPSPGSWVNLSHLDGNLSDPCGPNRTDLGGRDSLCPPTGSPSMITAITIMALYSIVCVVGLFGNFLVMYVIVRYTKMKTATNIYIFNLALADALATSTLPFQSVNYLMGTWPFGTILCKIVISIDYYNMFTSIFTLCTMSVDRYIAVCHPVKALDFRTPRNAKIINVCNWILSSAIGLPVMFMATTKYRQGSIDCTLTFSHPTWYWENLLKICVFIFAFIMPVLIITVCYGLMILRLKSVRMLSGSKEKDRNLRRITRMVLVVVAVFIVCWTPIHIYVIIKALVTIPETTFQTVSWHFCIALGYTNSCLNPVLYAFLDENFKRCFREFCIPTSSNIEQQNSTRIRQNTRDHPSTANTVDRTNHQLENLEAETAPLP

[5] = molecular target: Glutamate receptor ionotropic, NMDA 1 (Rattus norvegicus, UniProt P35439)
[6] = molecular target: Gamma-aminobutyric acid receptor subunit alpha-1 (Rattus norvegicus, UniProt P62813); assay type: functional
Chain of Gamma-aminobutyric acid receptor subunit alpha-1 (P62813 whole entry): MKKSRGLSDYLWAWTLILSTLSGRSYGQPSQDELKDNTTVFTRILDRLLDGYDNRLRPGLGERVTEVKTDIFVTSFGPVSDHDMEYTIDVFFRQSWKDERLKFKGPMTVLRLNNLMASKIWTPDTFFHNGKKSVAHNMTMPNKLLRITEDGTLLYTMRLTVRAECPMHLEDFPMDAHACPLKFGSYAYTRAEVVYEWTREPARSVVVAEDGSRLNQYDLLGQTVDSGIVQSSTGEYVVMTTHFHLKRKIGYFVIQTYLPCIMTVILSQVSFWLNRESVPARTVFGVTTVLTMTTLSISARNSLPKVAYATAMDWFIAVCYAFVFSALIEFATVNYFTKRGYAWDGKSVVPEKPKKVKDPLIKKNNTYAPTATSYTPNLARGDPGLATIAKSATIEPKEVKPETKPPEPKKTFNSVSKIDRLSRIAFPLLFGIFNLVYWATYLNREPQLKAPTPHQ

[7] = molecular target: T6, Alpha-1A adrenergic receptor (Homo sapiens, UniProt P35348); assay type: functional, cell-based
T6 sequence (P35348 whole entry): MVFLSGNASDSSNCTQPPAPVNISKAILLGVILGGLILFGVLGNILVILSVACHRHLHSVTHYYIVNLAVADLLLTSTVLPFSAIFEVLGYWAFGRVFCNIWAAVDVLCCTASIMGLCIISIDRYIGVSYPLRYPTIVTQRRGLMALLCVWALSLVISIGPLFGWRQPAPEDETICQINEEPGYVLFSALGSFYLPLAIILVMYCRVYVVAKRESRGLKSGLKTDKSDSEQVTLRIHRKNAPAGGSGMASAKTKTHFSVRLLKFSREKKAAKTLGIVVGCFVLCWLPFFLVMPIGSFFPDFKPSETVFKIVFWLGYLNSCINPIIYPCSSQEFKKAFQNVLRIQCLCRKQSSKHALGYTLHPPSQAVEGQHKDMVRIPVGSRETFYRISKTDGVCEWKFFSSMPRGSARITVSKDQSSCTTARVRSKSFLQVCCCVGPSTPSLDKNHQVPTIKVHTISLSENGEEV

[8] = molecular target: Sodium-dependent serotonin transporter (Homo sapiens, UniProt P31645)
Chain of Sodium-dependent serotonin transporter (P31645 whole entry): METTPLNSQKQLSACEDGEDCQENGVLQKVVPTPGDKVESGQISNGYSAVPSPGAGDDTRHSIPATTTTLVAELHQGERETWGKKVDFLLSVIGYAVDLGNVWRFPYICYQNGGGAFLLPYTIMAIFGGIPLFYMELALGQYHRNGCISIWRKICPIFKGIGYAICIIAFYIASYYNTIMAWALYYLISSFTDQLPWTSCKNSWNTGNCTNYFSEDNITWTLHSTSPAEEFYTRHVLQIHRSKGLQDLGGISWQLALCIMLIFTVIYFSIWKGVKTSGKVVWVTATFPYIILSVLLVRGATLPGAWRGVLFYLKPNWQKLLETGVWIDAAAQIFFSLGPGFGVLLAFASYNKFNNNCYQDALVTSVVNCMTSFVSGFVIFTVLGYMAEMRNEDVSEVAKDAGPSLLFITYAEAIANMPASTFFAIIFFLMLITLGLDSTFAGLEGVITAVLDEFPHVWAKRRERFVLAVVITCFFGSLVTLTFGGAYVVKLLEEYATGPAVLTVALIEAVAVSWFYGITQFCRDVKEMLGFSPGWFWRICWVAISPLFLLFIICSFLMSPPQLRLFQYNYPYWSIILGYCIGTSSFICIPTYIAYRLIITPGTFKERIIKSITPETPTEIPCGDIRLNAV
Further: assay procedure not described here.

AC50 [5] [µM]	AC50 [6] [µM]	Compound	AC50 [1] [µM]	AC50 [2] [µM]	AC50 [3] [µM]	AC50 (Endothelin-1 receptor) [µM]	AC50 [4] [µM]	AC50 (Adenosine receptor A1) [µM]	AC50 (Mu-type opioid receptor) [µM]	AC50 [7] [µM]	AC50 [8] [µM]
		CC(=N)N1CC[C@H](SC2=C(C(=O)O)N3C(=O)[C@H]([C@@H](C)O)[C@H]3C2)C1	60	> 300	> 300	> 300	> 300	> 300	> 300		
> 10	> 10	O=C1CN2Cc3c(ccc(Cl)c3Cl)N=C2N1 [ANAGRELIDE]	> 30	> 30	> 30		> 30	> 30	> 30		
> 10	> 10	[H]/N=C(\N/C(=N/[H])NCCCCCCNC(=N)NC(=N)Nc1ccc(Cl)cc1)Nc1ccc(Cl)cc1 [CHLORHEXIDINE]	> 30	1	15.9		> 10	> 30	13		
	> 30	CC1(C)O[C@@H]2C[C@H]3[C@@H]4C[C@H](F)C5=CC(=O)C=C[C@]5(C)[C@H]4[C@@H](O)C[C@]3(C)[C@]2(C(=O)CO)O1 [FLUNISOLIDE]	> 30	> 30	> 30	> 30	> 30	> 30	> 30		
		C[C@]12CCC(=O)C=C1CC[C@@H]1[C@@H]2[C@@H](O)C[C@@]2(C)[C@H]1CC[C@]2(O)C(=O)COC(=O)CCC(=O)O [HYDROCORTISONE HEMISUCCINATE ANHYDROUS]								> 30	> 30
		N=C(N)NCc1cccc([123I])c1 [IOBENGUANE I 123]								> 30	> 30
		CC(C)(N)C(=O)N[C@H](Cc1c[nH]c2ccccc12)C(=O)N[C@H](Cc1c[nH]c2ccccc12)NC=O [MACIMORELIN]								> 30	> 30
		C=C1c2c(Cl)ccc(O)c2C(=O)C2=C(O)[C@]3(O)C(=O)C(C(N)=O)=C(O)[C@@H](N(C)C)[C@@H]3[C@@H](O)[C@H]12 [MECLOCYCLINE]								> 30	> 30
		Cc1cc2c(OCC(O)CNC(C)C)cccc2[nH]1 (stereo unspecified) [MEPINDOLOL]								> 30	> 30
		CCCCCOc1ccc(-c2cc(-c3ccc(C(=O)N[C@H]4C[C@@H](O)[C@@H](O)NC(=O)[C@@H]5[C@@H](O)[C@@H](C)CN5C(=O)[C@H]([C@H](O)CC(N)=O)NC(=O)[C@H]([C@H](O)[C@@H](O)c5ccc(O)c(OS(=O)(=O)O)c5)NC(=O)[C@@H]5C[C@@H](O)CN5C(=O)[C@H]([C@@H](C)O)NC4=O)cc3)no2)cc1 [MICAFUNGIN] (X1-[Orn(4R-OH,5R-OH)]T[Hyp][hTyr(3S-OH,4S-OH,3'-OSO3H)][Gln(3R-OH)][Pro(3S-OH,4S-Me)]; lactam 1-C)								> 30	> 30
		CCOc1ccc2ccccc2c1C(=O)N[C@@H]1C(=O)N2[C@@H]1SC(C)(C)[C@@H]2C(=O)O [NAFCILLIN]								> 30	> 30

Compound	AC50 [5] [µM]	AC50 [6] [µM]	AC50 [1] [µM]	AC50 [2] [µM]	AC50 [3] [µM]	AC50 (Endothelin-1 receptor) [µM]	AC50 [4] [µM]	AC50 (Adenosine receptor A1) [µM]	AC50 (Mu-type opioid receptor) [µM]	AC50 [7] [µM]	AC50 [8] [µM]
CNCC[C@H](Oc1cccc2ccccc12)c1cccs1 [DULOXETINE]	> 10	> 10	> 30	14.7	> 30		> 30	> 30	12		
C[C@H]1Oc2cc(cnc2N)-c2c(nn(C)c2C#N)CN(C)C(=O)c2ccc(F)cc21 [LORLATINIB]		> 30	> 30	> 30	> 30	> 30	> 30	> 30	> 30		
